What was measured:
mast cells [1] = experiment: Downstream signaling proteins in antigen-stimulated mast cells (FIG. 20); assay type: cell-based; conditions: mast cells stimulated with an antigen
[2] = system: mast cell from an ISM patient; experiment: IgE-mediated calcium influx in ISM patient mast cells (FIG. 17); assay type: cell-based, human; conditions: presence of SCF, prior to antigen stimulation
Description: Mast cell from an ISM patient was treated with Compound 128 at 50 mg, 75 mg, 100 mg, and 150 mg BID dose prior to antigen (Ag) stimulation. ISM 3-2 mast cell donor MC 1061-004 C1D8 D39. Experiments performed in the presence of SCF. […] Percent of Control (POC) based on Area-under-Curve above baseline (1st value).

basophils [3] = experiment: Comparison of BTK inhibitors by BAT (CD63, CD203c); assay type: cell-based, human; conditions: concentration of 1 μM, 2 hours, blood from a healthy donor
Description: (§1) The BAT assay using the Flow Cast Basophil Activation Kit (Buhlmann Diagnostics; Catalog #B-CCR-STCON) was then conducted following manufacturer instructions by (1) stimulating the blood with anti-FcεR stimulation control in stimulation buffer with IL-3 and staining cells for CCR3 and CD63 for 15 minutes at 37° C., (2) lysing red blood cells and fixing cells with Lysing Reagent at room temperature for 10 minutes, (3) washing cells with Wash Buffer, and (4) acquiring data on a flow cytometer. Activated basophils were defined as CCR3+, low side scatter and CD63+. Percent of activated basophils was calculated as number of activated basophils over the total number of basophils. A four-parameter logistic regression was applied to determine the EC50 and EC90.
Blood samples were gently rocked at room temperature for 2 hours. […] Activated basophils were also defined as CCR3+, low side scatter and CD203c+.

basophils [4] = experiment: Basophil Activation Test (BAT), CD63, whole blood; assay type: cell-based, human; conditions: 24 hours versus 2 hours drug exposure
Description: as §1, with “The BAT was conducted as set forth in Santos (2021) Allergy, 76:2420-2432. Blood from six healthy donors was drawn and Compound 128 was added at various concentrations (10 μM, 3.16 μM, 1 μM, 0.3 μM, 0.1 μM, 0.03 μM, or 0 μM). Blood samples were gently rocked at room temperature for 2 hours, 24 hours, or 48 hours. The” for “The”

BTK = BTK (Homo sapiens, UniProt Q06187); experiment: Antigen-induced BTK phosphorylation in ISM-like mast cells; assay type: cell-based; design: Human mast cells were differentiated from bone marrow CD34+ cells from six healthy donors; endogenous in cells; host or cells: human mast cells differentiated from bone marrow CD34+ cells of healthy donors, cultured with SCF; conditions: ISM-like (+SCF) mast cells, two hours treatment prior to stimulation
Sequence of BTK (Q06187 whole entry): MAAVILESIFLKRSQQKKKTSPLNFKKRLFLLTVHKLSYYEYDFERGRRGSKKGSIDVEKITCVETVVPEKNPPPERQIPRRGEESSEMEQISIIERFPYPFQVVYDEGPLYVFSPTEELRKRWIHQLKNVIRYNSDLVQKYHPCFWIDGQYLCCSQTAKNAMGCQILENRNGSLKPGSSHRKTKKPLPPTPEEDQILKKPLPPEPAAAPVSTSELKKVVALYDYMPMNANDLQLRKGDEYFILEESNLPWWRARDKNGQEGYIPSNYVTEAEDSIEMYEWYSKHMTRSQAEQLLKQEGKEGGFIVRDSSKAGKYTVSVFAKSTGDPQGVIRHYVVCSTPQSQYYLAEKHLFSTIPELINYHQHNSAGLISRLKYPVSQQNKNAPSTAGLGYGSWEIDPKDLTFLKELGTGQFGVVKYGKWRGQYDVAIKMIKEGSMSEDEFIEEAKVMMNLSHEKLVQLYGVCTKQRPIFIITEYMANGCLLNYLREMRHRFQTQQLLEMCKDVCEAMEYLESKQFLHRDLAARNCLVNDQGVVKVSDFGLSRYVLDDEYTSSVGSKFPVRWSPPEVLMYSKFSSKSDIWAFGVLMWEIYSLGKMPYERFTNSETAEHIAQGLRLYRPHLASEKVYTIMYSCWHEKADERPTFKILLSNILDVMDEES
Description: Human mast cells were derived from bone marrow CD34+ cells from six healthy donors for up to eight weeks by culturing CD34+ cells in StemSpan SFEM II (Stem Cell Technologies) supplemented with stem cell factor (SCF; 100 ng/mL; R&D System), IL-6 (R&D Systems), IL-3 (R&D Systems) and 1% penicillin/streptomycin (P/S; Gibco) for the first 10 days and in StemSpan SFEM II supplemented with SCF and IL-6 and 1% P/S for the remaining time in culture. […] Supernatant was collected and histamine levels were measured using a Histamine ELISA kit (Eagle Biosciences). […] Percent of activated mast cells was calculated as number of activated mast cells over the total number of mast cells.
Human mast cells were differentiated from bone marrow CD34+ cells from six healthy donors, cultured and sensitized as set forth in Example 4. […] The median fluorescence intensity of phosphorylated BTK was measured. CD63 and histamine levels in these cells were measured and percent activated mast cells were calculated as set forth in Example 4. The percent of stimulated control for pBTK, activated mast cells (CD63+) and histamine levels was calculated. […]

mast cells [5] = experiment: Monomeric IgE-mediated degranulation and cytokine production in mast cells; assay type: cell-based, human; conditions: mast cells from a healthy donor, 2 hours treatment, myeloma IgE with SCF
Description: Mast cells from a healthy donor were starved of SCF for 18 hours and treated with Compound 128 for 2 hours. Mast cells were stimulated with SCF (100 ng/ml) or myeloma IgE (3 μg/ml; Millipore Sigma) alone or in combination for 30 minutes (CD63 and Histamine) or 24 hours (cytokine production), respectively. For the histamine and cytokine test, supernatant was collected and the levels of histamine and cytokines were measured as set forth in Example 4 for histamine and Example 7 for cytokines. For the CD63 test, the cells were stained for CD63, data was acquired on a flow cytometer and percent activated mast cells calculated as set forth in Example 4. […] The monomeric IgE contribution to degranulation and cytokine production is inhibited by Compound 128.

## C=CC(=O)N1CCC(F)(CNc2ncnc(N)c2-c2ccc(Oc3ccccc3)cc2)CC1 [Compound 128, 1-(4-(((6-amino-5-(4-phenoxyphenyl)pyrimidin-4-yl)amino)methyl)-4-fluoropiperidin-1-yl)prop-2-en-1-one]
Mast cells [1]
  activation of multiple downstream signaling proteins: can be inhibited
[2]
  IgE-mediated calcium influx: potently inhibits
Basophils [3]
  basophil activation (CD63+, CD203c+): fully inhibits basophil activation
Basophils [4]
  potency increase after 24 hours drug exposure: approximately 4 fold
BTK
  IgE-mediated BTK phosphorylation: potently inhibits
Mast cells [5]
  monomeric IgE contribution to degranulation and cytokine production: inhibited

Reference: patent US20250360130A1, “METHODS OF TREATING INDOLENT SYSTEMIC MASTOCYTOSIS” (Telios Pharma Inc., priority 2024, published 2025)
